Consider 1 sequence from paper PMC11232398, “Antimalarial activity of cecropin antimicrobial peptides derived from Anopheles mosquitoes” (Antimicrobial Agents and Chemotherapy, 2024).

For series [1], the system named is P. falciparum 3D7 ring, trophozoite and schizont stages. The series is described as follows: Stage-specific parasite inhibition assay. Particulars: 40 µM for 12 hours at ring, trophozoite or schizont stage; reinvasion parasitemia at 50 hpi and after 1:40 dilution and 4 days. It is filed as cell-based, Plasmodium falciparum. As for the experimental part:
The activity of An-cecB against different blood stage parasites was evaluated. Parasites were exposed to An-cecB at a lethal concentration of 40 µM for 12 hours at the ring stage [[…] (hours post invasion)], trophozoite stage (17–29 hpi), and schizont stage (29–41 hpi) (Fig. 2a). […] Parasites were then washed and cultured for 4 days […].
To analyze the stage-specific parasite inhibition, highly synchronized ring-stage parasites of the 3D7 strain were cultured in 48-well plates with a starting parasitemia of 0.5% ~ 1% at a hematocrit of 2%. The tested peptide at a concentration of 40 µM was added to ring stage parasites (5 hpi), trophozoites (17 hpi), and schizonts (29 hpi). After treatment for 12 hours, the parasites were washed three times to remove the peptide and the re-invaded parasites (50 hpi) were analyzed. The parasitemia (50hpi) was diluted 1:40 by new RBCs and cultured for a further 4 days. CM was used as a blank control. Parasitemia was counted under a microscope.

The subject of series [2] is P. falciparum 3D7 (sensitive strain). The series is described as follows: In vitro antimalarial activity, 3-day inhibition assay. It is filed as cell-based, Plasmodium falciparum. Particulars: Giemsa smears. Here is the method:
Blood stages of the laboratory clones P. falciparum 3D7 (sensitive strain), P. falciparum 803 (artemisinin-resistant strain), and P. falciparum Dd2 (chloroquine-resistant strain) were cultured in vitro according to the method of Trager and Jensens with minor modifications ([37]). Briefly, cultures were maintained in O-positive human erythrocytes (RBCs) as host cells at 2% hematocrit and maintained in complete medium (CM) [RPMI-1640 culture medium supplemented with NaHCO3 (2 mg/mL), hypoxanthine (50 µg/mL), HEPES (5.96 mg/mL), albumax II (1%), and gentamicin (40 µg/mL)]. The cultures were diluted to 1% parasitemia and 2% hematocrit in CM and incubated in a humidified atmosphere with 5% O2, 5% CO2, and 90% N2 at 37°C. Prior to experiments, the cultures were highly synchronized for ring stages using 5% sorbitol twice at a 40-h interval. Briefly, ring stage cultures were centrifuged and the pellet was washed once in incomplete medium (ICM, RPMI-1640 without addition). Then, the pellet was resuspended in 5% sorbitol and incubated at 37°C for 10 min. After incubation, the suspension was centrifuged and the pellet was washed once and resuspended in medium. The development of the parasite was observed using light microscopy, and parasitemia was determined by counting at least 10,000 RBCs on Giemsa’s solution-stained thin blood smears.
Highly synchronous ring stage parasites were used to investigate the in vitro antimalarial activity of the peptides. For preliminary screening of in vitro antimalarial activity, a 3-day inhibition assay was used to test the antimalarial activity of An-cecA, An-cecB, and An-cecC. […] For IC50 assay, a series of concentrations of peptides were added to the parasite culture. The concentrations of An-cecB were 5, 15, 20, 25, 30, 35, and 40 µM, while those of An-cecB-1 were 20, 30, 40, 50, 60, 70, 80, and 90 µM. After 72 hours of incubation, the antimalarial effects of peptides were estimated. Thin blood films stained with Giemsa’s solution were counted under a microscope. The parasitemia of cultures treated with peptides was compared with that of control. IC50 was calculated by GraphPad Prism.

In series [3] the test system is Plasmodium falciparum 3D7. The series is described as follows: Transmission electron microscope analysis of parasite morphology. It is filed as cell-based. Particulars: TEM. As for the experimental part: 3D7 strain parasites with parasitemia of 3% ~ 5% at a hematocrit of 2% were planted in 12-well plates, 3 mL/well. A 40-µM concentration of An-cecB or 200 µM An-cecB-1 was added and incubated for 30 min or 60 min. PBS was used as a control.
After incubation, the parasites were washed three times with ICM, and the electron microscope fixative solution (provided by the company) was added to keep the parasites clumped for 2 hours at room temperature. Finally, the samples were sent to a commercial company at 4°C for transmission electron microscope analysis.

The subject of series [4] is Plasmodium berghei (ANKA). It is filed as in vivo. The conditions noted are these: for Inhibition (%) of P. berghei growth: parasitemia on day 4, BALB/c mice. Here is the method: The in vivo antimalarial activity of peptides was evaluated using a 4-day suppressive test in P. berghei-infected mouse model mice ([44]). The mice were divided into five groups of six mice. Donor mice were infected with 200 µL of P. berghei parasite inoculum by intraperitoneal injection. Parasitized blood was collected from the tail vein of donor mice and diluted with 0.9% sodium chloride solution. Mice were then infected with saline suspension of 1 × 10^7 parasitized erythrocytes (0.2 mL) by intraperitoneal injection (Day0). Four hours after infection, each of the three groups of mice was treated with peptide by intraperitoneal injection at daily doses of 10, 25, and 50 mg/kg for 4 consecutive days. Positive control mice were treated with chloroquine at daily doses of 10 mg/kg and negative control mice with normal saline. On day 4 (96 hours post infection), the parasitemia of each mouse was determined under a light microscope by examination of Giemsa’s solution-stained thin blood smears prepared from mouse tail blood ([28]). The mean parasitemia in each group of mice was used to calculate the % suppression for each dose using the following formula:
%suppression = (parasitemia of negative control − parasitemia of test) * 100/parasitemia of negative control.
The antimalarial activity of the peptides was determined from the ratio of the percentage of parasite reduction in treated and negative control groups ([44]). Results were expressed as median (range) values.

Setting [5] is: 40 µM An-cecB or 200 µM An-cecB-1, total 20 / 22.

Where two headings read alike, the source gives them in different places.

Protocol for HEK293T cells: (§1) The mammalian cell lines HepG2 and HEK293T were used for cytotoxicity tests. The cells were cultured in Dulbecco’s modified Eagle medium supplemented with 10% fetal bovine serum and 1% penicillin/streptomycin in an incubator at 37°C with 5% CO2. Cells were seeded at a density of 1 × 10^5 cells/mL per well into a 96-well plate overnight and treated with different concentrations of peptides for 48 hours. To analyze the CC50 of peptides, a series of concentrations of peptides (0, 5, 10, 20, 30, 40, 50, 60, and 70 µM) were set to detect their cytotoxic concentrations. Then, 10% CCK-8 solution was added into each well and incubated for another 2 hours. The absorbance was monitored by a microplate reader at 450 nm. PBS was used as a negative control and the inhibition of each drug was normalized to that of the PBS control. CC50 was calculated by GraphPad Prism. Two independent assays with three technical replicates each time were conducted.
Protocol for HepG2 cells: as §1

A word on the CC50: it is the concentration that lowers cell viability or growth by half. A high value points to better tolerance by the cells. A word on the IC50: it is the concentration that gives 50% inhibition. Read a low IC50 as inhibition by little substance. In the case of “APRWKFGKRLEKLGRNVFRAA KKALPVIAGYKAL-NH2 [An-cecB]”, in the series with HEK293T cells, the cytotoxic concentration (CC50) came to 57.33 µM and the “cytotoxicity to HEK293T cells” value is given as “dose-dependently inhibited the cell viability”. In addition, the “activity against different blood stage parasites” value in series [1] is recorded as “All parasite stages were killed”. The sequence further gave an inhibition rate in series [2] (50 µM peptide, 72 h, ring stage, 1% parasitemia, 2% hematocrit) of 100%. In series [2] (3D7, 72 h incubation, GraphPad Prism, two independent assays, three technical replicates), this sequence displayed an IC50 of 12.4 µM. The CC50 in the series with HepG2 cells is given as 60.43 µM. Also, the “Normal (number of parasites)” value in series [3] (40 µM An-cecB or 200 µM An-cecB-1, 30 or 60 min, total 20 (An-cecB), 22 (An-cecB-1)) was 7. In series [3] (setting [5]), the “Disintegration (number of parasites)” value is reported as 3, the “Parasite disoriented (number of parasites)” value is reported as 4, the “Parasite membrane dissolution (number of parasites)” value was 7 and the “Parasite shrunken (number of parasites)” value was determined as 9. Moreover, the “Vacuole formation (number of parasites)” value in series [3] (setting [5]) amounted to 3. The “Inhibition (%) of P. berghei growth” value in series [4] (10 mg/kg daily i.p. for 4 consecutive days) is reported as 0.63%. In series [4] (25 mg/kg daily i.p. for 4 consecutive days), the “Inhibition (%) of P. berghei growth” value is given as 5.12%. Besides, the “mortality of infected mice in the 4-day suppressive test” value in series [4] (in vivo) is reported as “all infected mice died before the end of the experiment”.
